Laboratory results taken from patent publication US20050245399A1, “Pyrazole derivatives as herbicidal compositions containing them” (ISHIHARA SANGYO KAISHA, LTD., priority 2004, published 2005).

How the values were obtained:
Assay type in all cases: in vivo
[1] = tested on: green foxtail (Setaria viridis L.), SETVI; test: Test Example 2 post-emergence (foliage treatment) herbicidal activity, SETVI; settings: 63 g a.i./ha
Source text: (§1) Upland field soil was put into a 1/170,000 ha pot, and seeds of various plants were sown. Then, when the plants reached predetermined leaf stages {1. barnyardgrass (Echinochloa crus-galli L.), ECHCG: 1.1-2.1 leaf stage, 2. crabgrass (Digitaria sanguinalis L.), DIGSA: 1.0-2.0 leaf stage, 3. green foxtail (Setaria viridis L.), SETVI: 1.0-2.2 leaf stage, 4. redroot pigweed (Amaranthus retroflexus L.), AMARE: 0.1-1.5 leaf stage, 5. prickly sida (Sida spinosa L.), SIDSP: 0.1-0.6 leaf stage, 6. velvetleaf (Abutilon theophrasti), ABUTH: 0.1-0.6 leaf stage, 7. common cocklebur (Xanthium strumarium L.), XANST: 0.1 leaf stage, 8. rice (Oryza sativa L.), ORYSA; 1.0-2 leaf stage, 9. wheat (Triticum aestivum L.), TRZAX: 2.3-3.5 leaf stage, 10. corn (Zea mays L.), ZEAMXN 2.1-2.6 leaf stage, 11. soybean (Glycine max Merr.), GLXMA: primary leaf stage}, a wettable powder or emulsifiable concentrate having the compound of the present invention formulated in accordance with a usual formulation method, was weighed so that the active ingredient would be a predetermined amount, and diluted with water in an amount of 500 L/ha. To the diluted solution, 0.1% (v/v) of an agricultural spreader was added. The herbicide adjusted was applied by a small size sprayer for foliage treatment. On the 20th to 23rd day after the application of the herbicide, the growth of the respective plants was visually observed, and the herbicidal effects were evaluated by growth controlling degrees (%) ranging from 0 (equivalent to the untreated control) to 100 (complete kill), whereby the results shown in Table 5, were obtained. Compound Nos. in Table 5 correspond to Compound Nos. in Table 1 and 2 given hereinbefore.

[2] = tested on: wheat (Triticum aestivum L.): TRZAX; test: Test Example 1 pre-emergence herbicidal activity, TRZAX; settings: visually observed 20th to 23rd day after application
Source text: (§2) Upland field soil was put into a 1/170,000 ha pot, and seeds of various plants {1. barnyardgrass (Echinochloa crus-galli L.): ECHCG, 2. crabgrass (Digitaria sanguinalis L.): DIGSA, 3. green foxtail (Setaria viridis L.): SETVI, 4. redroot pigweed (Amaranthus retroflexus L.): AMARE, 5. prickly sida (Sida spinosa L.): SEDSP, 6. velvetleaf (Abutilon theophrasti): ABUTH, 7. common cocklebur (Xanthium strumarium L.): XANST, 8. rice (Oryza sativa L.): ORYSA, 9. wheat (Triticum aestivum L.): TRZAX, 10. corn (Zea mays L.): ZEAMX, 11. soybean (Glycine max Merr.): GLXMA} were sown. Then, one day after the sowing, a wettable powder or emulsifiable concentrate having the compound of the present invention formulated in accordance with a usual formulation method, was weighed so that the active ingredient would be a predetermined amount and diluted with water in an amount of 500 L/ha. The herbicide adjusted was applied by a small size sprayer for preemergence treatment. On the 20th to 23rd day after the application of the herbicide, the growth of the respective plants was visually observed, and the herbicidal effects were evaluated by growth controlling degrees (%) ranging from 0 (equivalent to the untreated control) to 100 (complete kill), whereby the results shown in Table 4, were obtained. Compound Nos. in Table 4 correspond to Compound Nos. in Table 1 and 2 given hereinbefore.

[3] = tested on: crabgrass (Digitaria sanguinalis L.), DIGSA; test: Test Example 2 post-emergence (foliage treatment) herbicidal activity, DIGSA; settings: 63 g a.i./ha
Source text: as §1

[4] = tested on: rice (Oryza sativa L.): ORYSA; test: Test Example 1 pre-emergence herbicidal activity, ORYSA; settings: visually observed 20th to 23rd day after application
Source text: as §2

[5] = tested on: soybean (Glycine max Merr.), GLXMA; test: Test Example 2 post-emergence (foliage treatment) herbicidal activity, GLXMA; settings: 63 g a.i./ha
Source text: as §1

[6] = tested on: velvetleaf (Abutilon theophrasti), ABUTH; test: Test Example 2 post-emergence (foliage treatment) herbicidal activity, ABUTH; settings: 63 g a.i./ha
Source text: as §1

[7] = tested on: soybean (Glycine max Merr.): GLXMA; test: Test Example 1 pre-emergence herbicidal activity, GLXMA; settings: visually observed 20th to 23rd day after application
Source text: as §2

[8] = tested on: crabgrass (Digitaria sanguinalis L.): DIGSA; test: Test Example 1 pre-emergence herbicidal activity, DIGSA; settings: visually observed 20th to 23rd day after application
Source text: as §2

[9] = tested on: green foxtail (Setaria viridis L.): SETVI; test: Test Example 1 pre-emergence herbicidal activity, SETVI; settings: visually observed 20th to 23rd day after application
Source text: as §2

[10] = tested on: wheat (Triticum aestivum L.), TRZAX; test: Test Example 2 post-emergence (foliage treatment) herbicidal activity, TRZAX; settings: 63 g a.i./ha
Source text: as §1

[11] = tested on: barnyardgrass (Echinochloa crus-galli L.), ECHCG; test: Test Example 2 post-emergence (foliage treatment) herbicidal activity, ECHCG; settings: 63 g a.i./ha
Source text: as §1

[12] = tested on: redroot pigweed (Amaranthus retroflexus L.): AMARE; test: Test Example 1 pre-emergence herbicidal activity, AMARE; settings: visually observed 20th to 23rd day after application
Source text: as §2

[13] = tested on: barnyardgrass (Echinochloa crus-galli L.): ECHCG; test: Test Example 1 pre-emergence herbicidal activity, ECHCG; settings: visually observed 20th to 23rd day after application
Source text: as §2

[14] = tested on: prickly sida (Sida spinosa L.), SIDSP; test: Test Example 2 post-emergence (foliage treatment) herbicidal activity, SIDSP; settings: 63 g a.i./ha
Source text: as §1

[15] = tested on: corn (Zea mays L.), ZEAMX; test: Test Example 2 post-emergence (foliage treatment) herbicidal activity, ZEAMX; settings: 63 g a.i./ha
Source text: as §1

[16] = tested on: velvetleaf (Abutilon theophrasti): ABUTH; test: Test Example 1 pre-emergence herbicidal activity, ABUTH; settings: visually observed 20th to 23rd day after application
Source text: as §2

[17] = tested on: corn (Zea mays L.): ZEAMX; test: Test Example 1 pre-emergence herbicidal activity, ZEAMX; settings: visually observed 20th to 23rd day after application
Source text: as §2

[18] = tested on: rice (Oryza sativa L.), ORYSA; test: Test Example 2 post-emergence (foliage treatment) herbicidal activity, ORYSA; settings: 63 g a.i./ha
Source text: as §1

[19] = tested on: prickly sida (Sida spinosa L.): SEDSP; test: Test Example 1 pre-emergence herbicidal activity, SIDSP; settings: visually observed 20th to 23rd day after application
Source text: as §2

| SMILES | Pre-emergence Herbicidal Activity TRZAX (growth controlling degree) ([2]; Rate 63 g a.i./ha) [%] | Pre-emergence Herbicidal Activity ORYSA (growth controlling degree) ([4]; Rate 63 g a.i./ha) [%] | Pre-emergence Herbicidal Activity GLXMA (growth controlling degree) ([7]; Rate 63 g a.i./ha) [%] | Pre-emergence Herbicidal Activity DIGSP (growth controlling degree) ([8]; Rate 63 g a.i./ha) [%] | Pre-emergence Herbicidal Activity SETVI (growth controlling degree) ([9]; Rate 63 g a.i./ha) [%] | Pre-emergence Herbicidal Activity AMARE (growth controlling degree) ([12]; Rate 63 g a.i./ha) [%] | Pre-emergence Herbicidal Activity ECHCG (growth controlling degree) ([13]; Rate 63 g a.i./ha) [%] | Pre-emergence Herbicidal Activity ABUTH (growth controlling degree) ([16]; Rate 63 g a.i./ha) [%] | Pre-emergence Herbicidal Activity ZEAMX (growth controlling degree) ([17]; Rate 63 g a.i./ha) [%] | Pre-emergence Herbicidal Activity SIDSP (growth controlling degree) ([19]; Rate 63 g a.i./ha) [%] | further results |
| --- | --- | --- | --- | --- | --- | --- | --- | --- | --- | --- | --- |
| COCCC(=O)Nc1c(OC)c(Cl)cc(F)c1-c1nn(C)c(OC(F)F)c1Cl [Compound 1-40] | 60 | 80 | 30 | 100 | 100 | 100 | 100 | 100 | 60 | 100 | growth controlling degree, SETVI [1]: 100%; growth controlling degree, DIGSP [3]: 80%; growth controlling degree, GLXMA [5]: 95%; growth controlling degree, ABUTH [6]: 100%; growth controlling degree, TRZAX [10]: 50%; growth controlling degree, ECHCO [11]: 100%; growth controlling degree, SIDSP [14]: 100%; growth controlling degree, ZEAMX [15]: 70%; growth controlling degree, ORYSA [18]: 100% |
| COc1c(Cl)cc(F)c(-c2nn(C)c(OC(F)F)c2Cl)c1NCCOc1ccccc1 [Compound 1-77] | 0 | 0 | 0 | 0 | 10 |  | 0 | 0 | 0 | 0 | growth controlling degree, SETVI [1]: 95%; growth controlling degree, DIGSP [3]: 60%; growth controlling degree, GLXMA [5]: 60%; growth controlling degree, ABUTH [6]: 100%; growth controlling degree, TRZAX [10]: 30%; growth controlling degree, ECHCO [11]: 70%; growth controlling degree, SIDSP [14]: 100%; growth controlling degree, ZEAMX [15]: 60%; growth controlling degree, ORYSA [18]: 40% |
| COc1c(Cl)cc(F)c(-c2nn(C)c(OC(F)F)c2Cl)c1NC(=O)CCc1cccc(F)c1 [Compound 1-266] | 40 | 10 | 0 | 100 | 80 | 100 | 60 | 50 | 0 | 100 |  |
| COc1c(Cl)cc(F)c(-c2nn(C)c(OC(F)F)c2Cl)c1NC(=O)CCc1ccc(F)cc1 [Compound 1-267] | 20 | 30 | 0 | 100 | 95 | 100 | 70 | 100 | 0 | 80 |  |
| COc1c(Cl)cc(F)c(-c2nn(C)c(OC(F)F)c2Cl)c1NC(=O)C(C)Cc1ccccc1 (stereo not drawn) [Compound 1-268] | 20 | 30 | 0 | 100 | 80 | 100 | 40 | 80 | 0 | 70 |  |
| COc1c(Cl)cc(F)c(-c2nn(C)c(OC(F)F)c2Cl)c1NC(=O)CCc1ccccc1F [Compound 1-269] | 40 | 40 | 0 | 100 | 100 | 100 | 80 | 80 | 10 | 100 |  |
| COc1c(Cl)cc(F)c(-c2nn(C)c(OC(F)F)c2Cl)c1NC(=O)c1ccc2ccccc2c1 [Compound 1-271] |  |  |  |  |  |  |  |  |  |  | Pre-emergence Herbicidal Activity TRZAX (growth controlling degree) ([2]; Rate 125 g a.i./ha): 10%; Pre-emergence Herbicidal Activity ORYSA (growth controlling degree) ([4]; Rate 125 g a.i./ha): 60%; Pre-emergence Herbicidal Activity GLXMA (growth controlling degree) ([7]; Rate 125 g a.i./ha): 20%; Pre-emergence Herbicidal Activity DIGSP (growth controlling degree) ([8]; Rate 125 g a.i./ha): 100%; Pre-emergence Herbicidal Activity SETVI (growth controlling degree) ([9]; Rate 125 g a.i./ha): 90%; Pre-emergence Herbicidal Activity AMARE (growth controlling degree) ([12]; Rate 125 g a.i./ha): 100%; Pre-emergence Herbicidal Activity ECHCG (growth controlling degree) ([13]; Rate 125 g a.i./ha): 70%; Pre-emergence Herbicidal Activity ABUTH (growth controlling degree) ([16]; Rate 125 g a.i./ha): 40%; Pre-emergence Herbicidal Activity ZEAMX (growth controlling degree) ([17]; Rate 125 g a.i./ha): 20%; Pre-emergence Herbicidal Activity SIDSP (growth controlling degree) ([19]; Rate 125 g a.i./ha): 100% |
